In patent US9302999B2, “Substituted triazoles as herbicides” (E. I. DU PONT DE NEMOURS AND COMPANY, priority 2012, dated 2016):

Experiments:
Type in all cases: in vivo
[1] = tested on: barnyardgrass (Echinochloa crus-galli); assay: Test A pre-/postemergence: barnyardgrass; details: for Barnyardgrass plant response rating: Postemergence; for Plant response rating, Barnyardgrass: Preemergence
Method in brief: (§1)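 Rating scale 0–100 (100 = complete control), visual, ~10 days after application in the greenhouse. Applications: preemergence directed soil spray; postemergence at 1–2 leaves.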

[2] = tested on: crabgrass, large (large crabgrass, Digitaria sanguinalis); assay: Test A pre-/postemergence: crabgrass, large; details: for Crabgrass, Large plant response rating: Postemergence; for Plant response rating, Crabgrass, Large: Preemergence
Method in brief: as §1

[3] = tested on: foxtail, giant (giant foxtail, Setaria faberii); assay: Test A pre-/postemergence: foxtail, giant; details: for Foxtail, Giant plant response rating: Postemergence; for Plant response rating, Foxtail, Giant: Preemergence
Method in brief: as §1

[4] = tested on: morningglory (Ipomoea spp.); assay: Test A pre-/postemergence: morningglory; details: for Morningglory plant response rating: Postemergence; for Plant response rating, Morningglory: Preemergence
Method in brief: as §1

[5] = tested on: pigweed (Amaranthus retroflexus); assay: Test A pre-/postemergence: pigweed; details: for Pigweed plant response rating: Postemergence; for Plant response rating, Pigweed: Preemergence
Method in brief: as §1

[6] = tested on: velvetleaf (Abutilon theophrasti); assay: Test A pre-/postemergence: velvetleaf; details: for Velvetleaf plant response rating: Postemergence; for Plant response rating, Velvetleaf: Preemergence
Method in brief: as §1

[7] = tested on: wheat (Triticum aestivum); assay: Test A pre-/postemergence: wheat; details: for Wheat plant response rating: Postemergence; for Plant response rating, Wheat: Preemergence
Method in brief: as §1

corn (Zea mays) = assay: Test A pre-/postemergence: corn; details: for Corn plant response rating: Postemergence; for Plant response rating, Corn: Preemergence
Method in brief: as §1

rice (Oryza sativa) = assay: Test C flooded paddy test: rice; details: scale 0 to 100 (0 no effect, 100 complete control)
Method in brief: (§2)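 Greenhouse plants treated at the 2-leaf stage by dosing the flood water (3 cm depth, maintained) were compared with controls after 13 to 15 days and rated 0 to 100, where 100 means complete control; a dash marks no test result.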

[8] = tested on: sedge, umbrella (small-flower umbrella sedge, Cyperus difformis); assay: Test C flooded paddy test: sedge, umbrella; details: scale 0 to 100 (0 no effect, 100 complete control)
Method in brief: as §2

[9] = tested on: ducksalad (Heteranthera limosa); assay: Test C flooded paddy test: ducksalad; details: scale 0 to 100 (0 no effect, 100 complete control)
Method in brief: as §2

[10] = tested on: barnyardgrass (Echinochloa crus-galli); assay: Test C flooded paddy test: barnyardgrass; details: scale 0 to 100 (0 no effect, 100 complete control)
Method in brief: as §2

[11] = 125 g ai/ha, 0 to 100 scale, 0 is no effect, 100 is complete control
[12] = 500 g ai/ha, visual rating on 0 to 100 scale (0 no effect, 100 complete control), approximately ten days
[13] = 125 g ai/ha, 0 to 100 scale (0 no effect, 100 complete control)
[14] = 500 g ai/ha, 0 to 100 scale, 0 is no effect, 100 is complete control
[15] = Flood (flooded paddy test), 125 g ai/ha, visual rating after 13 to 15 days
[16] = Flood (flooded paddy test), 250 g ai/ha, visual rating after 13 to 15 days

In the case of `Cc1nn(-c2ccc(C(F)(F)F)cc2)nc1Oc1ccnc(OCC(F)(F)F)c1` [Compound 77], the “Barnyardgrass plant response rating” value [1, 11] is reported as 0, the “Barnyardgrass plant response rating” value [1, 12] is reported as 10 and the “Plant response rating, Barnyardgrass” value [1, 13] is reported as 0. For the same compound, the “Plant response rating, Barnyardgrass” value [1, 14] was 0, the “Crabgrass, Large plant response rating” value [2, 11] was 10 and the “Crabgrass, Large plant response rating” value [2, 12] was 20. For the same compound, the “Plant response rating, Crabgrass, Large” value [2, 13] was 0, the “Plant response rating, Crabgrass, Large” value [2, 14] was 10 and the “Foxtail, Giant plant response rating” value [3, 11] was 10. For the same compound, the “Foxtail, Giant plant response rating” value [3, 12] was 20, the “Plant response rating, Foxtail, Giant” value [3, 13] was 0 and the “Plant response rating, Foxtail, Giant” value [3, 14] was 10. For the same compound, the “Morningglory plant response rating” value [4, 11] was 10, the “Morningglory plant response rating” value [4, 12] was 10 and the “Plant response rating, Morningglory” value [4, 13] was 0. For the same compound, the “Plant response rating, Morningglory” value [4, 14] was 0, the “Pigweed plant response rating” value [5, 11] was 90 and the “Pigweed plant response rating” value [5, 12] was 100. For the same compound, the “Plant response rating, Pigweed” value [5, 13] was 0, the “Plant response rating, Pigweed” value [5, 14] was 10 and the “Velvetleaf plant response rating” value [6, 11] was 10. The “Velvetleaf plant response rating” value [6, 12] was 10, the “Plant response rating, Velvetleaf” value [6, 13] was 0 and the “Plant response rating, Velvetleaf” value [6, 14] was 0. For the same compound, the “Wheat plant response rating” value [7, 11] was 0, the “Wheat plant response rating” value [7, 12] was 0 and the “Plant response rating, Wheat” value [7, 13] was 0. For the same compound, the “Plant response rating, Wheat” value [7, 14] was 0, the “Corn plant response rating” value (corn (Zea mays); [11]) was 0 and the “Corn plant response rating” value (corn (Zea mays); [12]) was 10. For the same compound, the “Plant response rating, Corn” value (corn (Zea mays); [13]) was 0, the “Plant response rating, Corn” value (corn (Zea mays); [14]) was 0 and the “Plant response rating, Rice” value (rice (Oryza sativa); [15]) was 0. The “Plant response rating, Rice” value (rice (Oryza sativa); [16]) was 0, the “Plant response rating, Rice” value (rice (Oryza sativa); Flood, 31 g ai/ha) was 0 and the “Plant response rating, Rice” value (rice (Oryza sativa); Flood, 62 g ai/ha) was 0. For the same compound, the “Plant response rating, Sedge, Umbrella” value [8, 15] was 0, the “Plant response rating, Sedge, Umbrella” value [8, 16] was 0 and the “Plant response rating, Sedge, Umbrella” value ([8]; Flood, 31 g ai/ha) was 0. For the same compound, the “Plant response rating, Sedge, Umbrella” value ([8]; Flood, 62 g ai/ha) was 0, the “Plant response rating, Ducksalad” value [9, 15] was 0 and the “Plant response rating, Ducksalad” value [9, 16] was 0. For the same compound, the “Plant response rating, Ducksalad” value ([9]; Flood, 31 g ai/ha) was 0, the “Plant response rating, Ducksalad” value ([9]; Flood, 62 g ai/ha) was 0 and the “Plant response rating, Barnyardgrass” value [10, 15] was 0. For the same compound, the “Plant response rating, Barnyardgrass” value [10, 16] was 0, the “Plant response rating, Barnyardgrass” value ([10]; Flood, 31 g ai/ha) was 0 and the “Plant response rating, Barnyardgrass” value ([10]; Flood, 62 g ai/ha) was 0.
`COc1nn(-c2ccc(C(F)(F)F)cc2)nc1C(C)(O)c1ccnc(C(F)(F)F)c1` (stereo not drawn) [Compound 79] was tested, and the “Barnyardgrass plant response rating” value [1, 11] was 0, the “Barnyardgrass plant response rating” value [1, 12] was 0 and the “Plant response rating, Barnyardgrass” value [1, 13] was 0. For the same compound, the “Plant response rating, Barnyardgrass” value [1, 14] was 0, the “Crabgrass, Large plant response rating” value [2, 11] was 0 and the “Crabgrass, Large plant response rating” value [2, 12] was 0. For the same compound, the “Plant response rating, Crabgrass, Large” value [2, 13] was 0, the “Plant response rating, Crabgrass, Large” value [2, 14] was 0 and the “Foxtail, Giant plant response rating” value [3, 11] was 0. For the same compound, the “Foxtail, Giant plant response rating” value [3, 12] was 10, the “Plant response rating, Foxtail, Giant” value [3, 13] was 0 and the “Plant response rating, Foxtail, Giant” value [3, 14] was 0. For the same compound, the “Morningglory plant response rating” value [4, 11] was 0, the “Morningglory plant response rating” value [4, 12] was 0 and the “Plant response rating, Morningglory” value [4, 13] was 0. The “Plant response rating, Morningglory” value [4, 14] was 0, the “Pigweed plant response rating” value [5, 11] was 0 and the “Pigweed plant response rating” value [5, 12] was 0. For the same compound, the “Plant response rating, Pigweed” value [5, 13] was 0, the “Plant response rating, Pigweed” value [5, 14] was 0 and the “Velvetleaf plant response rating” value [6, 11] was 0. The “Velvetleaf plant response rating” value [6, 12] was 0, the “Plant response rating, Velvetleaf” value [6, 13] was 0 and the “Plant response rating, Velvetleaf” value [6, 14] was 0. The “Wheat plant response rating” value [7, 11] was 0, the “Wheat plant response rating” value [7, 12] was 0 and the “Plant response rating, Wheat” value [7, 13] was 0. For the same compound, the “Plant response rating, Wheat” value [7, 14] was 0, the “Corn plant response rating” value (corn (Zea mays); [11]) was 0 and the “Corn plant response rating” value (corn (Zea mays); [12]) was 0. For the same compound, the “Plant response rating, Corn” value (corn (Zea mays); [13]) was 0, the “Plant response rating, Corn” value (corn (Zea mays); [14]) was 0 and the “Plant response rating, Rice” value (rice (Oryza sativa); [15]) was 0. The “Plant response rating, Rice” value (rice (Oryza sativa); [16]) was 0, the “Plant response rating, Rice” value (rice (Oryza sativa); Flood, 31 g ai/ha) was 0 and the “Plant response rating, Rice” value (rice (Oryza sativa); Flood, 62 g ai/ha) was 0. The “Plant response rating, Sedge, Umbrella” value [8, 15] was 0, the “Plant response rating, Sedge, Umbrella” value [8, 16] was 0 and the “Plant response rating, Sedge, Umbrella” value ([8]; Flood, 31 g ai/ha) was 0. The “Plant response rating, Sedge, Umbrella” value ([8]; Flood, 62 g ai/ha) was 0, the “Plant response rating, Ducksalad” value [9, 15] was 0 and the “Plant response rating, Ducksalad” value [9, 16] was 0. The “Plant response rating, Ducksalad” value ([9]; Flood, 31 g ai/ha) was 0, the “Plant response rating, Ducksalad” value ([9]; Flood, 62 g ai/ha) was 0 and the “Plant response rating, Barnyardgrass” value [10, 15] was 0. The “Plant response rating, Barnyardgrass” value [10, 16] was 0, the “Plant response rating, Barnyardgrass” value ([10]; Flood, 31 g ai/ha) was 0 and the “Plant response rating, Barnyardgrass” value ([10]; Flood, 62 g ai/ha) was 0.
